Test results from patent EP4635500A1, “THERAPEUTIC AGENT FOR BACTERIAL INFECTION” (Sumitomo Pharma Co., Ltd., priority 2022, dated 2024).
Read-outs that look alike come from different tables or passages of the source.

Assays:
Test in all cases: MIC and MBC, broth microdilution (Example 4, Table 3)
Format in all cases: cell-based
[1] = test system: Enterobacter cloacae complex; details: Enterobacter cloacae complex CDC-164 (NMC-A)
Morganella morganii = Morganella morganii CDC-57 (NDM-1)
Acinetobacter baumannii = test system: Acinetobacter baumannii
Serratia marcescens = Serratia marcescens CDC-124 (SME-3)
Klebsiella pneumoniae = test system: Klebsiella pneumoniae
Enterobacter aerogenes = test system: Enterobacter aerogenes
[2] = Acinetobacter baumannii CDC-303 (OXA-23, OXA-66)

CC(C)(O/N=C(\C(=O)N[C@@H]1C(=O)N2C(C(=O)[O-])=C(C[n+]3ccccc3)CS[C@H]12)c1csc(N)n1)C(=O)O [CAZ, ceftazidime]
128 µg/mL: MBC (Acinetobacter baumannii; Acinetobacter baumannii, Acinetobacter baumannii CDC-303 (OXA-23, OXA-66)) | MBC (Enterobacter aerogenes; Klebsiella aerogenes) | MIC (Enterobacter aerogenes; Klebsiella aerogenes)
> 128 µg/mL: MBC (Morganella morganii) | MIC (Morganella morganii) | MBC (Acinetobacter baumannii; Acinetobacter baumannii, Acinetobacter baumannii CDC-33 (NDM-1, OXA-94)) | MIC (Acinetobacter baumannii; Acinetobacter baumannii, Acinetobacter baumannii CDC-33 (NDM-1, OXA-94), read-out: MIC) | MBC (Acinetobacter baumannii; Acinetobacter baumannii, Acinetobacter baumannii CDC-101 (OXA-24, OXA-65)) | MIC (Acinetobacter baumannii; Acinetobacter baumannii, Acinetobacter baumannii CDC-101 (OXA-24, OXA-65), read-out: MIC) | MIC (Klebsiella pneumoniae; ATCCBAA2470, Klebsiella pneumoniae ATCC BAA-2470 (NDM-1), read-out: MIC) | MIC (Klebsiella pneumoniae; Klebsiella pneumoniae) | MIC (Klebsiella pneumoniae; Klebsiella pneumoniae NCTC13440 (VIM-1), read-out: MIC) | MIC (Klebsiella pneumoniae; Klebsiella pneumoniae, ATCCBAA2344) | MBC (Klebsiella pneumoniae; Klebsiella pneumoniae, ATCCBAA2344, Klebsiella pneumoniae ATCC BAA-2344 (KPC-2)) | MBC (Klebsiella pneumoniae; Klebsiella pneumoniae, ATCCBAA2470, Klebsiella pneumoniae ATCC BAA-2470 (NDM-1)) | MBC (Klebsiella pneumoniae; Klebsiella pneumoniae, Klebsiella pneumoniae CDC-112 (KPC-3)) | MBC (Klebsiella pneumoniae; Klebsiella pneumoniae, Klebsiella pneumoniae CDC-505 (NDM-1)) | MBC (Klebsiella pneumoniae; Klebsiella pneumoniae, Klebsiella pneumoniae KUB3607 (IMP-1)) | MBC (Klebsiella pneumoniae; Klebsiella pneumoniae, NCTC13440, Klebsiella pneumoniae NCTC13440 (VIM-1))
>128 µg/mL: MIC (Klebsiella pneumoniae; Klebsiella pneumoniae CDC-505 (NDM-1)) | MIC (Klebsiella pneumoniae; Klebsiella pneumoniae KUB3607 (IMP-1))
1: MBC/MIC ratio [1] | MBC/MIC ratio (Acinetobacter baumannii; Acinetobacter baumannii CDC-304 (OXA-66, OXA-72)) | MBC/MIC ratio (Klebsiella pneumoniae; Klebsiella pneumoniae ATCC BAA-2524 (OXA-48)) | MBC/MIC ratio (Enterobacter aerogenes; Enterobacter aerogenes CDC-161 (IMP-4))
0.25 µg/mL: MIC (Serratia marcescens)
64 µg/mL: MIC (Acinetobacter baumannii; [2]) | MIC (Acinetobacter baumannii; Acinetobacter baumannii CDC-304 (OXA-66, OXA-72), read-out: MIC) | MBC (Acinetobacter baumannii; Acinetobacter baumannii, Acinetobacter baumannii CDC-304 (OXA-66, OXA-72)) | MBC (Serratia marcescens)
2: MBC/MIC ratio (Acinetobacter baumannii; [2])
32 µg/mL: MBC [1] | MIC [1]
256: MBC/MIC ratio (Serratia marcescens)
0.5 µg/mL: MBC (Klebsiella pneumoniae; Klebsiella pneumoniae, ATCCBAA2524, Klebsiella pneumoniae ATCC BAA-2524 (OXA-48)) | MIC (Klebsiella pneumoniae; Klebsiella pneumoniae, ATCCBAA2524, Klebsiella pneumoniae ATCC BAA-2524 (OXA-48), read-out: MIC)
